Active and inactive are the calls of the source.
Key:
[1] = HepG2 cell cytotoxicity, dose response, cytotoxicity control, ATP luminescence, cherry-pick, activator set 2 (AID 1053143); type: functional, cell-based
cells [2] = type: functional, cell-based
cells [3] = type: functional, cell-based; remark: listed apart in the source
[4] = human group III sPLA2 inhibitors, dose response, biochemical, QFRET, IC50 (AID 743457);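 further: green fluorescence rise as the enzyme cleaves BODIPY PC-A2 in liposomes; potency for inhibition of the enzyme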
Beta-galactosidase = Beta-galactosidase (Escherichia coli, UniProt Q8VNN2); assay: Dose response counterscreen for EBI2 assay utilizing the enzyme, b-galactosidase.; type: functional
Sequence of Beta-galactosidase (Q8VNN2 whole entry): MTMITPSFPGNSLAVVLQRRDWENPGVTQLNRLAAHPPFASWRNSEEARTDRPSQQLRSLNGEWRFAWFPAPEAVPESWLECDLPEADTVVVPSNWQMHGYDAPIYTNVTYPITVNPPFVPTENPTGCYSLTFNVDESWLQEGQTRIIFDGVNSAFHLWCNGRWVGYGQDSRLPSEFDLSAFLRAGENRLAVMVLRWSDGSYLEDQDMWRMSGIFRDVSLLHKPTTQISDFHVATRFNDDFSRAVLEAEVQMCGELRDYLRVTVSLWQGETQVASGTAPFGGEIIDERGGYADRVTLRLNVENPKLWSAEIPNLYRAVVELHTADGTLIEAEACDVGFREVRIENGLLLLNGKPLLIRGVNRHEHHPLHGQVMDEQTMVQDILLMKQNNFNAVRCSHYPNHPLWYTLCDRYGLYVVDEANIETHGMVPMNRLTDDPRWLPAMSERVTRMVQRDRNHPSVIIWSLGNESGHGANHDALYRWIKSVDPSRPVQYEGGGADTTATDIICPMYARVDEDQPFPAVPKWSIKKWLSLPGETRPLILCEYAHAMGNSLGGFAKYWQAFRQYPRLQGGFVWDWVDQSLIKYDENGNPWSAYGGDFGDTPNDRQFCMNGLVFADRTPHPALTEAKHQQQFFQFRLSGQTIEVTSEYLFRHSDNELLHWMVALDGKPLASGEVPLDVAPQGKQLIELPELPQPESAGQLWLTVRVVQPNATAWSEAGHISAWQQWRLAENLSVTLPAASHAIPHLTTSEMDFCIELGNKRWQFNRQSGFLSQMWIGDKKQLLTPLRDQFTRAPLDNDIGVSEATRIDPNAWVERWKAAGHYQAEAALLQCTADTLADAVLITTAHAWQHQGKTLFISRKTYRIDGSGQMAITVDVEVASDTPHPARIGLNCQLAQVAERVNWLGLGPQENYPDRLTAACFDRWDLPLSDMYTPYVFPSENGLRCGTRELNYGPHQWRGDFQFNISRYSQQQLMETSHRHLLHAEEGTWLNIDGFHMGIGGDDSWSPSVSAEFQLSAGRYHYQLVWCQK

[5] = Late stage assay provider results from the probe development effort to identify selective inhibitors of heat shock protein 90 (HSP90): Absorbance-based cell proliferation assay in MCF7 cells.; type: functional
[6] = Late stage assay provider results from the probe development effort to identify selective inhibitors of heat shock protein 90 (HSP90): Absorbance-based cell proliferation assay in SKBR3 cells.; type: functional; conditions: SK-BR-3
Nonstructural protein 1 = Nonstructural protein 1 (Influenza A virus, UniProt Q194T2); type: functional, Influenza A virus (A/California/07/2009(H1N1))
Sequence of Nonstructural protein 1 (Q194T2 whole entry): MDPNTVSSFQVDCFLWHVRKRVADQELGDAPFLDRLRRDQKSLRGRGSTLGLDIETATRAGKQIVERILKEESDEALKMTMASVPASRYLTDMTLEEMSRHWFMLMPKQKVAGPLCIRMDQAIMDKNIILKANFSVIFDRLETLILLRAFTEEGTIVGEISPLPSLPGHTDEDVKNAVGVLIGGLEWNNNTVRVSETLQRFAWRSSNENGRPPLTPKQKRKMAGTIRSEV

Vero [7] = assay: Vero cell toxicity, dose response, cytotoxicity control, plate reader, cherry-pick samples (AID 687020); type: functional, cell-based; conditions: Chlorocebus sabaeus
[8] = biological target: T1, Replicative DNA helicase DnaB (Mycobacterium tuberculosis, UniProt P9WMR3); assay: DnaB intein splicing inhibitors, dose response, biochemical, cell-free fluorescence (AID 449749); type: functional
T1 sequence (P9WMR3 whole entry): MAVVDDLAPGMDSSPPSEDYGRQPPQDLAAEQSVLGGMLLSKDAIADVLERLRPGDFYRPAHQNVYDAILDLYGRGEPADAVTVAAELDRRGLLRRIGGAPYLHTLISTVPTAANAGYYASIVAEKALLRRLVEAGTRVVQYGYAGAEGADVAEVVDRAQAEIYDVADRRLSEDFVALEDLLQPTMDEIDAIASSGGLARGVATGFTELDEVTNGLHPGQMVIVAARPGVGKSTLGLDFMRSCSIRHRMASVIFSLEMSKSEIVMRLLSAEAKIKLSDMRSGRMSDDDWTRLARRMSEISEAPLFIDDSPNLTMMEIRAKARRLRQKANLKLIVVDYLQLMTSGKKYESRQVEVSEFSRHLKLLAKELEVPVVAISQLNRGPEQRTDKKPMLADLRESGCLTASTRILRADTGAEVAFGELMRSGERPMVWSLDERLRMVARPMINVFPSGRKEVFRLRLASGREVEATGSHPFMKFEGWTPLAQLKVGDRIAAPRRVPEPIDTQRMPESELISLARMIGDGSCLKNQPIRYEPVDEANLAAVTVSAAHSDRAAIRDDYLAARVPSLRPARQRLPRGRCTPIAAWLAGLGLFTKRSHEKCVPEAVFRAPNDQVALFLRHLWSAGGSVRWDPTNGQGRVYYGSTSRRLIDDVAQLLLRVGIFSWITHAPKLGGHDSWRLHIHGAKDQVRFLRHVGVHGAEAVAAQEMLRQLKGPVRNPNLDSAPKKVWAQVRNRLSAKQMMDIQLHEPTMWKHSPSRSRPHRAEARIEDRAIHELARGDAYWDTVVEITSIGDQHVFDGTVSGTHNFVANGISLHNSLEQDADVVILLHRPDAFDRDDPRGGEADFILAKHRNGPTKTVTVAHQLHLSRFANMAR

Protein RecA = biological target: T2, Protein RecA (Mycobacterium tuberculosis, UniProt P9WHJ3); assay: Fluorescence Cell-Free Homogeneous Dose Retest to Identify Inhibitors of RecA-Intein Splicing Activity. [Related pubchem assays (depositor defined):AID2097, AID2223, AID489010, AID492950]; type: functional
T2 sequence (P9WHJ3 whole entry): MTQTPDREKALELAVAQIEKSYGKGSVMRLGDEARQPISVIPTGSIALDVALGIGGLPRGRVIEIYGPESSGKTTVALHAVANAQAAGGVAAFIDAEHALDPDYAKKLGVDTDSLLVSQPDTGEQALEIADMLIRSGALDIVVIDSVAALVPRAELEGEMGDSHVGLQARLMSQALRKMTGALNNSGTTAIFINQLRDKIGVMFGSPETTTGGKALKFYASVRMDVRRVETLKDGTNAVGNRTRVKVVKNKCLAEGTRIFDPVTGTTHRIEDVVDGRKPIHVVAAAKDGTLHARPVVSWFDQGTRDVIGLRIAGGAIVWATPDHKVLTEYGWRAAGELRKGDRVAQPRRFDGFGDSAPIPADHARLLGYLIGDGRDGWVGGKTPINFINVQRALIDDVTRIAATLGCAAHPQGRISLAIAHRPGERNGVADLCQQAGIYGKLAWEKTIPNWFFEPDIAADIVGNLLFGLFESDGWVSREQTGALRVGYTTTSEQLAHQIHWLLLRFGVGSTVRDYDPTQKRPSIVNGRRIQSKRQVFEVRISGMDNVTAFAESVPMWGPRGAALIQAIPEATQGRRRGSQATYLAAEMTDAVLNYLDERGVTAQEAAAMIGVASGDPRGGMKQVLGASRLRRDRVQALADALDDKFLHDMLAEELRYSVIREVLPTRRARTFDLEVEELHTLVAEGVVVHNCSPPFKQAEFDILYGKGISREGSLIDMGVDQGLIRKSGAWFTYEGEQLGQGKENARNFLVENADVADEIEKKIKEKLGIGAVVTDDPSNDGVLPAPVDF

Vero [9] = assay: Vero cell cytotoxicity, cytotoxicity control for flavivirus capping enzyme inhibitors (AID 588742); type: functional; conditions: Chlorocebus sabaeus
[10] = biological target: Fructose-bisphosphate aldolase (Mycobacterium tuberculosis, UniProt P9WQA3); assay: Fluorescence-based biochemical high throughput dose response assay for inhibitors of the fructose-bisphosphate aldolase (FBA) of M. tuberculosis.; type: functional
Sequence of Fructose-bisphosphate aldolase (P9WQA3 whole entry): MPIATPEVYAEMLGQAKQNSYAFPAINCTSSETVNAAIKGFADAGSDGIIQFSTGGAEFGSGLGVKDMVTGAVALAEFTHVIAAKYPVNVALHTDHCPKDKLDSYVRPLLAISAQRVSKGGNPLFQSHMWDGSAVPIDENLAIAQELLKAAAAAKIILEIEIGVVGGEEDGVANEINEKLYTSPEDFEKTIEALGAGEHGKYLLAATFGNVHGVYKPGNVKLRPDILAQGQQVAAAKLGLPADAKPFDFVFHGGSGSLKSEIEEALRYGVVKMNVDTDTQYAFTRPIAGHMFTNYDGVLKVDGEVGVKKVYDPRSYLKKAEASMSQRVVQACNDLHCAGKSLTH

[11] = biological target: T3, Mannose-6-phosphate isomerase (Homo sapiens, UniProt P34949); assay: human PMI inhibitors, high substrate, primary screen, biochemical, fluorescence intensity, high mannose 6-phosphate (AID 1220)
T3 sequence (P34949 whole entry): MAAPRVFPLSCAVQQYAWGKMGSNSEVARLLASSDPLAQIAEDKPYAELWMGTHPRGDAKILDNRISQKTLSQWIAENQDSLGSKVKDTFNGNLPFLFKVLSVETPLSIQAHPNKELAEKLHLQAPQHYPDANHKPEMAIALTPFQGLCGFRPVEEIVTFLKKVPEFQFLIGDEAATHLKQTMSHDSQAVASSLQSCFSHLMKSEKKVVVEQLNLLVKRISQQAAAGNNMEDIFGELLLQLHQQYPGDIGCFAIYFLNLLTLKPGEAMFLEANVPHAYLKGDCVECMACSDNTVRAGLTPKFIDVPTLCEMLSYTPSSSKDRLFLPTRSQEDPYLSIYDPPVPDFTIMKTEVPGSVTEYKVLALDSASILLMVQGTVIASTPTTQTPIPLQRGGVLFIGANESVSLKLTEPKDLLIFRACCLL

[12] = biological target: T4, Nuclear receptor subfamily 0 group B member 1 (Homo sapiens, UniProt P51843); type: functional, cell-based;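 further: HEK293T cells transfected with SF-1 and DAX-1 plus StAR promoter luciferase reporter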
T4 sequence (P51843 whole entry): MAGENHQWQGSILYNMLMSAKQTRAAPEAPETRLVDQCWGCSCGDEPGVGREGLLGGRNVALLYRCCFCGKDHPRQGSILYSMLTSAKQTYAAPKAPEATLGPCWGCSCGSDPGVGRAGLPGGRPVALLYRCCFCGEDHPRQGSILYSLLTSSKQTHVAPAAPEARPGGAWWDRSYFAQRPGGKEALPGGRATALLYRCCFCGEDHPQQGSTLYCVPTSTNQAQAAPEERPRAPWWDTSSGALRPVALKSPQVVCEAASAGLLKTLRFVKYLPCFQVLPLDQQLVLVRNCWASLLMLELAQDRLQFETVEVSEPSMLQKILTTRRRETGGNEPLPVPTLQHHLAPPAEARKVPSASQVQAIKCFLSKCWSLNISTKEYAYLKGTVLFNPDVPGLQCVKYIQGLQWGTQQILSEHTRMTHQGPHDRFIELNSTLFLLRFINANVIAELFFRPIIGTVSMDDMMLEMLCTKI

cells [13] = type: functional, cell-based; remark: listed apart in the source
[14] = inhibitors of LMP1-driven NF-kB reporter, dose response, cell-based, EBV LMP1, luciferase, dry powder, set 2 (AID 624361); type: functional
[15] = LMP1-driven NF-kB reporter inhibition, dose response, cell-based, luciferase reporter, luminescence, dry powder, set 2 (AID 624376); type: functional
[16] = inhibitors of TNFa-stimulated NF-kB luciferase reporter, dose response, selectivity assay for EBV LMP1 NF-kB inhibitor project, HEK293 LMP1 reporter cells, dry powder, set 2 (AID 624369); type: functional
[17] = miR-122 activators in hepatoma reporter cells, dose response, cell-based, Huh7 psiCHECK-miR122, Renilla luciferase, cherry-picked (AID 651956); type: functional;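 further: huh7 hepatoma cells stably carrying a psiCHECK-2 miR-122 sensor plasmid; renilla luciferase signal reporting endogenous miR-122 activity after 48 h compound exposure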
[18] = A549 cell cytotoxicity, dose response, cytotoxicity control, plate reader, cherry-pick, antagonist series (AID 743412); type: functional, cell-based
[19] = MC4R antagonists, dose response, counter-screen for LGR2 antagonist project, cell-based, plate reader, cherry pick (AID 743444); type: functional;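 further: transfected HEK 293 cells stimulated with alpha-MSH peptide; potency of inhibitors of the alpha-MSH evoked signal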
[20] = LGR2 antagonists, dose response, cell-based, HEK293, CRE-luciferase reporter, cherry pick, set 2 (AID 743343); type: functional;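 further: transfected cells were stimulated with diluted bursicon conditioned medium after compound addition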
[21] = HEK293 cell cytotoxicity, dose response, cytotoxicity control, cherry-picks, set 5 (AID 1053117); type: functional, cell-based
[22] = TRPM1 promoter luciferase reporter signal decrease, dose response, MITF inhibitor project, cell-based, SK-MEL-5, dry powder, set 8 (AID 624430); type: functional
[23] = MITF Orthogonal Assay: SK-MEL-5 CTG Assay Measured in Cell-Based System Using Plate Reader - 2084-02_Inhibitor_Dose_DryPowder_Activity_Set7.; type: functional
[24] = MITF: Counter assay: A375 proliferation Measured in Cell-Based System Using Plate Reader - 2084-03_Inhibitor_Dose_DryPowder_Activity_Set8.; type: functional; conditions: A-375
[25] = biological target: Histone-lysine N-methyltransferase NSD2 (Homo sapiens, UniProt O96028); type: biochemical
Sequence of Histone-lysine N-methyltransferase NSD2 (O96028 whole entry): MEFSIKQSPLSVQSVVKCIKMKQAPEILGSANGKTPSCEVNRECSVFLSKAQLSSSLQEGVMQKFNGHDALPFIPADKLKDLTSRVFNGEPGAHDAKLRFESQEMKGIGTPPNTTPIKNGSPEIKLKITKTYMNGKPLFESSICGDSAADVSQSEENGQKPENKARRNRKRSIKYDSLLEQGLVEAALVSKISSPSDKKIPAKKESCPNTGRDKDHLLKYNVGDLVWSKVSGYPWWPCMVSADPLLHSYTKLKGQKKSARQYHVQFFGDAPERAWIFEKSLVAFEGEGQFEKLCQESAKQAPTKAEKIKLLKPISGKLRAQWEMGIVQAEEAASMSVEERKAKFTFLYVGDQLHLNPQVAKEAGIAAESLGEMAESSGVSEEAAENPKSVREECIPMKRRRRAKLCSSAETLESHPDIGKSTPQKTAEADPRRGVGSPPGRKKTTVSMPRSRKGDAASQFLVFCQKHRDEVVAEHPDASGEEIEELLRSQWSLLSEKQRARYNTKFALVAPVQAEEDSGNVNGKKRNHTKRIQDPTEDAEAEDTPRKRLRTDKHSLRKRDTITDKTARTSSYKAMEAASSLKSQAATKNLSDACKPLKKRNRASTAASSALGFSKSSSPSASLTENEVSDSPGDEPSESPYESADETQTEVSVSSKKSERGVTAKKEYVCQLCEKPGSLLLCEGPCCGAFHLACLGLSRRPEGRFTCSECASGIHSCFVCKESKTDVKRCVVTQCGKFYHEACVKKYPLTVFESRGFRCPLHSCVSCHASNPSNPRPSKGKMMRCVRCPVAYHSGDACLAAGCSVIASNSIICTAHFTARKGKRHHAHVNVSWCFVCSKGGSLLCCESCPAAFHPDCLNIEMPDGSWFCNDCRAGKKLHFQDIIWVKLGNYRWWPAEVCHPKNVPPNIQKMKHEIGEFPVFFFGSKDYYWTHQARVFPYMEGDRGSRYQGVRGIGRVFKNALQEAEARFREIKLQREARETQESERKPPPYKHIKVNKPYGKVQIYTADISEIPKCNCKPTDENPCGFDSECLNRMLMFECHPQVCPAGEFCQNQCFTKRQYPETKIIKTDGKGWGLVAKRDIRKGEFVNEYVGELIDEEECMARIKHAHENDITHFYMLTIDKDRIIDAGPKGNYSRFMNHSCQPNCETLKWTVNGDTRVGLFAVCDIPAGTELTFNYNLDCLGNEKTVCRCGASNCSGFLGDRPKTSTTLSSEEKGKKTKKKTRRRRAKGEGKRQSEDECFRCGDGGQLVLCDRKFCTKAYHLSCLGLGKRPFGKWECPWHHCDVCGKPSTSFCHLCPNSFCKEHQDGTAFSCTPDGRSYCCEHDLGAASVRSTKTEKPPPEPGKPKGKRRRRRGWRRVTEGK

SMILES: COCCNC(=O)c1cc(-c2cccs2)on1
- AC50 [1]: 26 µM (active)
- EC50 (cells [2]): 70.8 µM (active)
- EC50 (cells [3]): > 350 µM (not active)

SMILES: Sc1nnc(-c2ccc(Cl)cc2)n1-c1ccc2c(c1)OCCO2
- IC50 [4]: > 122 µM (inactive)

SMILES: CCOC(=O)N1CCN(C(=O)c2cc3c(s2)-c2ccccc2OC3)CC1
- IC50 (Beta-galactosidase): > 80 µM (inactive)

SMILES: Cc1cccc(NC(=O)c2coc(=O)c(Br)c2)n1
- IC50 [5]: 27.3 µM (inactive)
- IC50 [6]: 45.8 µM (inactive)

SMILES: c1ccc(-c2cnc(-c3ccccn3)nn2)cc1
- AC50 [1]: 26 µM (active)
- IC50 (Nonstructural protein 1): 18.9 µM (active)

SMILES: COC(=O)CCCCOc1ccc2cc(C#N)c(=O)oc2c1
- IC50 [5]: > 100 µM (inactive)
- IC50 [6]: > 100 µM (inactive)

SMILES: COc1c(Cl)cc(Br)c(OC)c1C(=O)NC(=O)Nc1nc(C)cc(C)n1
- AC50 (Vero [7]): 29.2 µM (active)

SMILES: CCOC(=O)c1c(NC(=O)c2ccco2)n(C2CCCCC2)c2nc3ccccc3nc12
- AC50 [8]: 229 µM (active)
- EC50 (Protein RecA): 2.62 µM (active)
- CC50 (Vero [9]): > 40 µM (active)
- IC50 [10]: 1.67 µM (active)
- IC50 [11]: > 50 µM (not active)

SMILES: COc1cc(C2c3cc4c(cc3C(O)C3COC(=O)C23)OCO4)cc(OC)c1OC (stereo not drawn)
- IC50 [12]: > 67.5 µM (inactive)
- IC50 (cells [13]): > 67.5 µM (inactive)

SMILES: CN1C(=O)c2cc(NC(=O)c3ccc(C(F)(F)F)cc3)ccc2OC[C@@H]2O[C@H](CC(=O)NC3Cc4ccccc4C3)CC[C@H]21
- AbsAC35 [14]: 52.78 µM
- AbsAC35 [15]: 100.28 µM
- AbsAC35 [16]: 229.94 µM
- AC50 [17]: 15.5 µM (active)

SMILES: COc1ccc(-c2cn3cc(C)ccc3n2)cc1F
- IC50 [12]: > 67.6 µM (inactive)
- AC50 [18]: 30.9 µM (active)
- AC50 [19]: 2.87 µM (active)
- IC50 (cells [13]): > 67.6 µM (inactive)
- AC50 [20]: 3 µM (active)

SMILES: CO[C@H]1CN(C)C(=O)c2cc(NC(=O)Nc3cc(Cl)cc(Cl)c3)ccc2OC[C@@H](C)NC[C@@H]1C
- AC50 [21]: > 52 µM (inactive)

SMILES: CN(CC(=O)Nc1cccc(F)c1)C(=O)c1ccccc1CCc1ccccc1
- AC50 (Vero [7]): 15.3 µM (active)

SMILES: COc1ccc(NC2=C(C)C(=O)c3ccccc3C2=O)cc1
- AC50 [22]: 14.3 µM (active)
- AC50 [23]: 0.533 µM (active)
- AC50 [24]: > 70 µM (inactive)

SMILES: COCC(C)OC(=O)/C(C#N)=C\c1coc2ccc(C)cc2c1=O (stereo not drawn)
- AC50 [25]: 11.9 µM (active)

SMILES: CCCCNc1c(-c2ccc(-c3ccc(C(C)=O)cc3)c(OC)c2)nc2cc(C)ccn12
- IC50 (Beta-galactosidase): 77.5 µM (inactive)

SMILES: Cc1cccc(-n2c(S)nnc2-c2ccoc2C)c1
- IC50 [4]: > 122 µM (inactive)

SMILES: COc1cc2c(cc1OC)C(C1C(=O)CC(C)CC1=O)N(C(=O)CCl)CC2 (stereo not drawn)
- IC50 [10]: > 9.99 µM (inactive)

SMILES: CC(C)(C)c1ccc(NC2=CC(=O)c3ccccc3C2=O)cc1
- AC50 [22]: 13.9 µM (active)
- AC50 [23]: 3.03 µM (active)
- AC50 [24]: > 70 µM (inactive)

SMILES: COc1ccccc1CNC(=O)C[C@@H]1C[C@H]2c3cc(NC(=O)c4ccc5c(c4)OCO5)ccc3O[C@H]2[C@H](CO)O1
- AbsAC35 [14]: 179.84 µM
- AbsAC35 [15]: 37.67 µM
- AbsAC35 [16]: 232.4 µM
